Assay [1] concerns the target SMARCA4 (Homo sapiens, UniProt P51532). Briefly: HiBiT assay for protein degradation, Hela SMARCA4-HiBiT cells (A series). The conditions noted are these: for DC50: read-out: SMARC A4 Hela HiBit DC50. It is filed as cell-based. Also noted: fuse HiBiT to the carboxy terminus of SMARCA2 (Promega CS302365) or SMARCA4 (Promega CS3023225); host or cells: HeLa (CRISPR/Cas9 HiBiT knock-in). In a few lines: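 HeLa cells engineered by CRISPR/Cas9 to carry a HiBiT tag fused to the C-terminus of SMARCA4 (Promega CS3023225) were grown in DMEM supplemented with FBS and penicillin-streptomycin. After compound exposure, remaining SMARCA4 protein was quantified using the Nano-Glo® HiBiT Lytic Detection Assay (Promega N3050), and curves were fitted in GraphPad Prism.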

The target in assay [2] is SMARCA2 (Homo sapiens, UniProt P51531). The assay can be described thus: HiBiT assay for protein degradation, Hela SMARCA2-HiBiT cells (A series).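 As to SMARC A2 Hela HiBit Dmax (%): 24 h compound treatment.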 The conditions noted are these: for DC50: read-out: SMARC A2 Hela HiBit DC50; for Dmax: read-out: SMARC A2 Hela HiBit Dmax (%). The format is cell-based. Also noted: Hela cells were genetically modified via CRISPR/Cas9 to fuse HiBiT to the carboxy terminus of SMARCA2; host or cells: HeLa (CRISPR/Cas9 HiBiT knock-in). In a few lines: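 HeLa cells engineered by CRISPR/Cas9 to carry a HiBiT tag fused to the C-terminus of SMARCA2 (Promega CS302365) were grown in DMEM supplemented with FBS and penicillin-streptomycin. After treatment, remaining SMARCA2 protein was quantified with the Nano-Glo® HiBiT Lytic Detection Assay (Promega N3050), and curves were fitted in GraphPad Prism.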

Setting [3] is: Hela SMARCA4-HiBiT cells, 24 hours treatment.
Setting [4] is: Hela SMARCA4-HiBiT cells, 24 hours treatment, read-out: SMARC A4 Hela HiBit Dmax(%).
[5] abbreviates: Hela SMARCA2-HiBiT cells, 24 hours treatment.
[6] abbreviates: Hela SMARCA4-HiBiT cells, 24 hours treatment, read-out: SMARC A4 Hela HiBit Dmax.
[7] abbreviates: HeLa, read-out: SMARC A4 Hela HiBit Dmax(%).

Here are results for 8 compounds from US20260092071A1, “COMPOUNDS AND COMPOSITIONS AS SMARCA2/4 DEGRADERS AND USES THEREOF” (REGENTS OF THE UNIVERSITY OF MICHIGAN, priority 2022, published 2026).

Structures are written as SMILES. Where two headings read alike, the source gives them in different places.

Chain of SMARCA2 (P51531 whole entry, the tested form may be a part): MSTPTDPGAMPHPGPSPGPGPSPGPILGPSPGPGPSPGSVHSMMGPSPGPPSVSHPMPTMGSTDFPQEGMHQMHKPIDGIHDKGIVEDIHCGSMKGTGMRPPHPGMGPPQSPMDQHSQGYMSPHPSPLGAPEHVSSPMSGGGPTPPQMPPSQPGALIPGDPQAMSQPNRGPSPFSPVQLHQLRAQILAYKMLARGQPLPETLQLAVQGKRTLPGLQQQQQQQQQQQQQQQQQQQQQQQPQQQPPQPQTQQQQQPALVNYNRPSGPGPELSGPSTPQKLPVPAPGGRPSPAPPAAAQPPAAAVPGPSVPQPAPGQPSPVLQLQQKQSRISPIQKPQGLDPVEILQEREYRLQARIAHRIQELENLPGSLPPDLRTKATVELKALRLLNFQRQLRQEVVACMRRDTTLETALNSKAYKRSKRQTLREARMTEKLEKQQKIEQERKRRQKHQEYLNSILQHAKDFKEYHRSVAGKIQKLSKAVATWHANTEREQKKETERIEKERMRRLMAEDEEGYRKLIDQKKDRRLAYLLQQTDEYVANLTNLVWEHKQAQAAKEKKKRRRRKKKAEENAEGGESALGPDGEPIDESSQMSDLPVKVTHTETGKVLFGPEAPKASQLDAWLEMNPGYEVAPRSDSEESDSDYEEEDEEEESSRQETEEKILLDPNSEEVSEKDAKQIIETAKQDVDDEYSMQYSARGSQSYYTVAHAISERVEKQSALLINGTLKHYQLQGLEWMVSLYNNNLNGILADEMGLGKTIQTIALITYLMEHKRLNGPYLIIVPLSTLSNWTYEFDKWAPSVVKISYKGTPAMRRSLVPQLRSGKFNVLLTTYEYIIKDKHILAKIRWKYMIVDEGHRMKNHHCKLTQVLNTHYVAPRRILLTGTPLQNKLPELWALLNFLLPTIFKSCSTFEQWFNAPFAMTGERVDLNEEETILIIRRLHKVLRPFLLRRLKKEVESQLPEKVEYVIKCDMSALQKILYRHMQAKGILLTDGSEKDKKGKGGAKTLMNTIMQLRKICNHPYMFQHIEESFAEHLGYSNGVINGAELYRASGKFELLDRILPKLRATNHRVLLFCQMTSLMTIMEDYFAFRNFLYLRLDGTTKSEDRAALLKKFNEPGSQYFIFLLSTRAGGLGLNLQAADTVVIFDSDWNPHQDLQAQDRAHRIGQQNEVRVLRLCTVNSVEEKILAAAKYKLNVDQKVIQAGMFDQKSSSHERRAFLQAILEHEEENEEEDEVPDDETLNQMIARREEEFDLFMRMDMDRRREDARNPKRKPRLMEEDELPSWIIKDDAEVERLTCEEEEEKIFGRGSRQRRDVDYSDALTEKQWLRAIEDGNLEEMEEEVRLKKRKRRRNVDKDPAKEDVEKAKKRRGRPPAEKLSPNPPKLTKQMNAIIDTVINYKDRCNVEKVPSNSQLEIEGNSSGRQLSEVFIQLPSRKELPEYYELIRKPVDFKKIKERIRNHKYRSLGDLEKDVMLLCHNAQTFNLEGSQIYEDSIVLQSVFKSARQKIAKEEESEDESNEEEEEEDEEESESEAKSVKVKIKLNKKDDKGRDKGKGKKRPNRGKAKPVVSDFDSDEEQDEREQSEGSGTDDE
Chain of SMARCA4 (P51532 whole entry, the tested form may be a part): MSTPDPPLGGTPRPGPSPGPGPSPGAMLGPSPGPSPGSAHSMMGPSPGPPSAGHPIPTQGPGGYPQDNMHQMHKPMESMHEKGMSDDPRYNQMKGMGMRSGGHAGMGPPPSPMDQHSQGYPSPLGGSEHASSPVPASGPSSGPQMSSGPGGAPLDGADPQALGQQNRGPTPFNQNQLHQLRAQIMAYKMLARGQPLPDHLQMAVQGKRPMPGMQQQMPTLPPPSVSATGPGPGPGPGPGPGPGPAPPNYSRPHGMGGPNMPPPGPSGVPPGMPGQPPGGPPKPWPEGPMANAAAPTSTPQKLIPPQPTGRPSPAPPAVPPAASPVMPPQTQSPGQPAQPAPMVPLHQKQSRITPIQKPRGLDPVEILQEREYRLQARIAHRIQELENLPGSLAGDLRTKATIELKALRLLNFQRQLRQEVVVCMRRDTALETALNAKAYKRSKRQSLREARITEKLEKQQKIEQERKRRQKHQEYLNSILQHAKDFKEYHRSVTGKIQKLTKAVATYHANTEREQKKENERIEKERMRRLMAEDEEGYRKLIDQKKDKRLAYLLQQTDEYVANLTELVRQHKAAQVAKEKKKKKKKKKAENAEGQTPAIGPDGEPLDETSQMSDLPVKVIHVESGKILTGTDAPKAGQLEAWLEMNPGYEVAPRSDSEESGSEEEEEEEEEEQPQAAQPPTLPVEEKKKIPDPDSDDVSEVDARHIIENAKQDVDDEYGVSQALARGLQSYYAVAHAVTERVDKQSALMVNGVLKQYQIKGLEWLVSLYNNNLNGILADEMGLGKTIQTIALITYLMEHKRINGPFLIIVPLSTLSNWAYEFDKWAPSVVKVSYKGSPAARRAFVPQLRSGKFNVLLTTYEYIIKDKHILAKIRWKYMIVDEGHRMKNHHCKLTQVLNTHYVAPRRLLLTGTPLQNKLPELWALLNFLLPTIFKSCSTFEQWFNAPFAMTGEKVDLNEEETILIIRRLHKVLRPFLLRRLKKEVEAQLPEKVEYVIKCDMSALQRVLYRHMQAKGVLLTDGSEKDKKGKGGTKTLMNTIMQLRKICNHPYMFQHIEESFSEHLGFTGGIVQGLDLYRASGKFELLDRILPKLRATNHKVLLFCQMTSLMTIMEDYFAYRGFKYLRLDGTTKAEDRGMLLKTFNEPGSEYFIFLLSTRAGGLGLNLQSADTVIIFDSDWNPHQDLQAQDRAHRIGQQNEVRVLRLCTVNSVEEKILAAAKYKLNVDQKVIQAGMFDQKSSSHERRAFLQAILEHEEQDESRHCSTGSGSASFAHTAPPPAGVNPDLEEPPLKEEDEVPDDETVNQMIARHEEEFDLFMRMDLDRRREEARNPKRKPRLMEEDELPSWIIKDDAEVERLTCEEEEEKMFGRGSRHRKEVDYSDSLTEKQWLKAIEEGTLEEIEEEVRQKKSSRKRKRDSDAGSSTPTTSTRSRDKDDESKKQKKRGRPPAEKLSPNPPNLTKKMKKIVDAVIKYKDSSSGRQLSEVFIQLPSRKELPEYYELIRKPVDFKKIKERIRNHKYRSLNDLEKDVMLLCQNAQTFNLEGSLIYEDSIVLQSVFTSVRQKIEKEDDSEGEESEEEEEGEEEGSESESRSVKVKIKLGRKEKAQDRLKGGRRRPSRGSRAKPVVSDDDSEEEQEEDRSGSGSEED

Regarding `Cc1ncsc1-c1ccc([C@H](CCCCCN2CCC(c3ccc4c(c3)C3(CCCC3)c3nc(=O)c5c(Cl)cccc5n3-4)CC2)NC(=O)[C@@H]2C[C@@H](O)CN2C(=O)[C@@H](NC(=O)C2(F)CC2)C(C)(C)C)cc1` [Compound A2, (2S,4R)—N—((S)-6-(4-(4′-chloro-5′-oxo-5′H-spiro[cyclopentane-1,7′-indolo[1,2-a]quinazolin]-9′-yl)piperidin-1-yl)-1-(4-(4-methylthiazol-5-yl)phenyl)hexyl)-1-((S)-2-(1-fluorocyclopropane-1-carboxamido)-3,3-dimethylbutanoyl)-4-hydroxypyrrolidine-2-carboxamide], the DC50 in assay [1] (setting [3]) and in assay [2] (setting [5]) was less than 100 nM in each case. Also, the greatest degradation seen (Dmax) in assay [1] (setting [4]) is 70 to 90%; in assay [2] (setting [5]) it was more than 90%.

`Cc1ncsc1-c1ccc([C@H](CN2CCC(C(=O)O)CC2)NC(=O)[C@@H]2C[C@@H](O)CN2C(=O)[C@@H](n2cc([C@H]3CC[C@H](CN4CCC(c5ccc6c(c5)-n5c(nc(=O)c7c(Cl)cccc75)C65CCCCC5)CC4)CC3)nn2)C(C)(C)C)cc1` [Compound A156, 1-((R)-2-((2S,4R)-1-((S)-2-(4-((1r,4S)-4-((4-(4′-chloro-5′-oxo-5′H-spiro[cyclohexane-1,7′-indolo[1,2-a]quinazolin]-10′-yl)piperidin-1-yl)methyl)cyclohexyl)-1H-1,2,3-triazol-1-yl)-3,3-dimethylbutanoyl)-4-hydroxypyrrolidine-2-carboxamido)-2-(4-(4-methylthiazol-5-yl)phenyl)ethyl)piperidine-4-carboxylic acid]: the DC50 in assay [1] (setting [3]) was more than 1000 nM; in assay [2] (setting [5]) it was 100 to 1000 nM. The figures for the Dmax in assay [1] (setting [6]) and in assay [2] (setting [5]) were less than 50% and 70 to 90%, respectively.

With `Cc1ncsc1-c1ccc([C@H](CCCCN2CCC(c3ccc4c(c3)-n3c(nc(=O)c5c(Cl)cccc53)C43CCOCC3)CC2)NC(=O)[C@@H]2C[C@@H](O)CN2C(=O)[C@@H](NC(=O)C2(F)CC2)C(C)(C)C)cc1` [Compound A10, (2S,4R)—N—((S)-5-(4-(4-chloro-5-oxo-2′,3′,5′,6′-tetrahydro-5H-spiro[indolo[1,2-a]quinazoline-7,4′-pyran]-10-yl)piperidin-1-yl)-1-(4-(4-methylthiazol-5-yl)phenyl)pentyl)-1-((S)-2-(1-fluorocyclopropane-1-carboxamido)-3,3-dimethylbutanoyl)-4-hydroxypyrrolidine-2-carboxamide], the “SMARC A4 Hela HiBit DC50(nM)” value in assay [1] (setting [3]) is “No fit”. For the same compound, in assay [1] (setting [4]), the greatest degradation seen (Dmax) is less than 50%. Moreover, in assay [2] (setting [5]), the half-maximal degradation concentration (DC50) is 501 to 1000 nM and the maximal degradation (Dmax) was in the range of 50 to 69%.

On to `Cc1ncsc1-c1ccc([C@H](CO)NC(=O)[C@@H]2C[C@@H](O)CN2C(=O)[C@H](C2CCCCC2)n2cc([C@H]3CC[C@H](CN4CCC(c5ccc6c(c5)-n5c(nc(=O)c7c(Cl)cccc75)C65CCCCC5)CC4)CC3)nn2)cc1` [Compound A126, (2S,4R)-1-((S)-2-(4-((1r,4S)-4-((4-(4′-chloro-5′-oxo-5′H-spiro[cyclohexane-1,7′-indolo[1,2-a]quinazolin]-10′-yl)piperidin-1-yl)methyl)cyclohexyl)-1H-1,2,3-triazol-1-yl)-2-cyclohexylacetyl)-4-hydroxy-N—((R)-2-hydroxy-1-(4-(4-methylthiazol-5-yl)phenyl)ethyl)pyrrolidine-2-carboxamide], for which the results for the DC50 in assay [1] (setting [3]) and in assay [2] (setting [5]) were 10 to 100 nM and less than 10 nM, respectively. Moreover, the values for the maximal degradation (Dmax) in assay [1] (setting [6]) and in assay [2] (setting [5]) were 50 to 69% and more than 90%, respectively.

Take `Cc1ncsc1-c1ccc([C@H](C)NC(=O)[C@@H]2C[C@@H](O)CN2C(=O)[C@@H](n2cc([C@H]3CC[C@H](CN4CCC(c5ccc6c(c5)C5(CCCCC5)c5nc(=O)c7c(Br)cccc7n5-6)CC4)CC3)nn2)C(C)(C)C)cc1` [Compound A60, (2S,4R)-1-((S)-2-(4-((1r,4S)-4-((4-(4′-bromo-5′-oxo-5′H-spiro[cyclohexane-1,7′-indolo[1,2-a]quinazolin]-9′-yl)piperidin-1-yl)methyl)cyclohexyl)-1H-1,2,3-triazol-1-yl)-3,3-dimethylbutanoyl)-4-hydroxy-N—((S)-1-(4-(4-methylthiazol-5-yl)phenyl)ethyl)pyrrolidine-2-carboxamide]: the DC50 in assay [1] is less than 100 nM. In assay [2], the “SMARC A2 Hela HiBit Dmax (%)” value is listed as “A (key: A (>90% degradation); B (70-90% degradation); C (50-69% degradation); D (<50% degradation))” and the DC50 is less than 100 nM.

`Cc1ncsc1-c1ccc([C@H](C)NC(=O)[C@@H]2C[C@@H](O)CN2C(=O)[C@@H](NC(=O)[C@H]2CC[C@H](CN3CCC(c4ccc5c(c4)C4(CCCCC4)c4nc(=O)c6c(Br)cccc6n4-5)CC3)CC2)C(C)(C)C)cc1` [Compound A14, (2S,4R)-1-((S)-2-((1r,4S)-4-((4-(4′-bromo-5′-oxo-5′H-spiro[cyclohexane-1,7′-indolo[1,2-a]quinazolin]-9′-yl)piperidin-1-yl)methyl)cyclohexane-1-carboxamido)-3,3-dimethylbutanoyl)-4-hydroxy-N—((S)-1-(4-(4-methylthiazol-5-yl)phenyl)ethyl)pyrrolidine-2-carboxamide]: the figures for the Dmax in assay [1] (setting [7]) and in assay [2] (HeLa) were 50 to 69% and more than 90%, respectively. In addition, the 50% degradation concentration (DC50) in assay [1] (setting [3]) was 100 to 500 nM; in assay [2] (setting [5]) it was less than 100 nM.

For `Cc1ncsc1-c1ccc([C@H](CN2CCC(F)(F)CC2)NC(=O)[C@@H]2C[C@@H](O)CN2C(=O)[C@@H](n2cc([C@H]3CC[C@H](CN4CCC(c5ccc6c(c5)-n5c(nc(=O)c7c(Cl)cccc75)C65CCCCC5)CC4)CC3)nn2)C(C)(C)C)cc1` [Compound A75, (2S,4R)-1-((S)-2-(4-((1r,4S)-4-((4-(4′-chloro-5′-oxo-5′H-spiro[cyclohexane-1,7′-indolo[1,2-a]quinazolin]-10′-yl)piperidin-1-yl)methyl)cyclohexyl)-1H-1,2,3-triazol-1-yl)-3,3-dimethylbutanoyl)-N—((R)-2-(4,4-difluoropiperidin-1-yl)-1-(4-(4-methylthiazol-5-yl)phenyl)ethyl)-4-hydroxypyrrolidine-2-carboxamide], the DC50 in assay [1] (setting [3]) is more than 1000 nM; in assay [2] (setting [5]), less than 100 nM. In addition, the Dmax is less than 50% in assay [1] (setting [4]) and more than 90% in assay [2] (setting [5]).

As for `Cc1ncsc1-c1ccc([C@H](C)NC(=O)[C@@H]2C[C@@H](O)CN2C(=O)[C@@H](NC(=O)[C@H]2CC[C@H](CN3CCC(c4ccc5c(c4)C4(CCCCC4)c4nc(=O)c6c(Cl)cccc6n4-5)CC3)CC2)C(C)(C)C)cc1` [Compound A11, (2S,4R)-1-((S)-2-((1r,4S)-4-((4-(4′-chloro-5′-oxo-5′H-spiro[cyclohexane-1,7′-indolo[1,2-a]quinazolin]-9′-yl)piperidin-1-yl)methyl)cyclohexane-1-carboxamido)-3,3-dimethylbutanoyl)-4-hydroxy-N—((S)-1-(4-(4-methylthiazol-5-yl)phenyl)ethyl)pyrrolidine-2-carboxamide], the values for the maximal degradation (Dmax) in assay [1] (setting [7]) and in assay [2] (HeLa) were less than 50% and 70 to 90%, respectively. In addition, the “SMARC A4 Hela HiBit DC50(nM)” value in assay [1] (setting [3]) is recorded as “No fit”. Also, in assay [2] (setting [5]), the DC50 is less than 100 nM.
